pIC50, pKd: −log10 of the molar value. Numbered stars: 1 amine (or outer) side, 2 acyl side, 3 side chain; on linkers, the order of the positions; unused ones are H or OH. Bridge positions count the residues as written; N and C are the ends. Square brackets hold non-standard residues; d marks the D form. Peptide text beside a SMILES is read from it. Trp(βS-Me,7-OMe) = COc1cccc2c([C@H](C)[C@H](N)C(=O)O)c[nH]c12; Trp(1-CH2COOH) = N[C@@H](Cc1cn(CC(=O)O)c2ccccc12)C(=O)O; Morpholine(3S-CO,6,6-Me2) = CC1(C)CN[C@H](C(=O)O)CO1; Trp(βS-Me) = C[C@@H](c1c[nH]c2ccccc12)[C@H](N)C(=O)O; Trp(7-CN) = N#Cc1cccc2c(C[C@H](N)C(=O)O)c[nH]c12; Trp(7-Cl) = N[C@@H](Cc1c[nH]c2c(Cl)cccc12)C(=O)O; Phe(3-CONH2) = NC(=O)c1cccc(C[C@H](N)C(=O)O)c1; Phe(4-CONH2) = NC(=O)c1ccc(C[C@H](N)C(=O)O)cc1; Phe(4-COOH) = N[C@@H](Cc1ccc(C(=O)O)cc1)C(=O)O; Trp(7-aza) = N[C@@H](Cc1c[nH]c2ncccc12)C(=O)O; Phe(4-CH2NH2) = NCc1ccc(C[C@H](N)C(=O)O)cc1; X23 = N[C@@H]1CCN([*:1])[C@H](C(=O)[*:2])C1; dPro(4S-NH2) = N[C@@H]1CN[C@@H](C(=O)O)C1; Pip(5R-OH) = O=C(O)[C@@H]1CC[C@@H](O)CN1; X1 = O=C([C@@H]1CC[C@H](N[*:1])C1)[*:2]; Nle(5,5-F2) = CC(F)(F)CC[C@H](N)C(=O)O; 2Nal = N[C@@H](Cc1ccc2ccccc2c1)C(=O)O; Pip(4-aza) = O=C(O)[C@@H]1CNCCN1; 4Pal = N[C@@H](Cc1ccncc1)C(=O)O; NMeE = CN[C@@H](CCC(=O)O)C(=O)O; dHyp = O=C(O)[C@H]1C[C@H](O)CN1; Cit = NC(=O)NCCC[C@H](N)C(=O)O; NEtAla = CCN[C@@H](C)C(=O)O; Pip = O=C(O)[C@@H]1CCCCN1; αMeS = C[C@](N)(CO)C(=O)O; Nle = CCCC[C@H](N)C(=O)O; Sar = CNCC(=O)O

In one assay the target is T1, human soluble TNFR1 (sTNFR1) (Homo sapiens, UniProt P19438).
T1 construct: made in house; host or cells: Sf21 (baculovirus)
T1 sequence (P19438 with tags, fused parts or gaps): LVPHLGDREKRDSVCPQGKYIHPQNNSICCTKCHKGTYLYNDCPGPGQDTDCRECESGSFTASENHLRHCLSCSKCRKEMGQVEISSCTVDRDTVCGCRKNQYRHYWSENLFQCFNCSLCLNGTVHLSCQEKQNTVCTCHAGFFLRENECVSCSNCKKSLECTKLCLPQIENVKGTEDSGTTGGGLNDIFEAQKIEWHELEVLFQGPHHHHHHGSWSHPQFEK
Nature of the assay: Human sTNFR1-peptide displacement assay (LanthaScreen Eu TR-FRET binding assay).
Conditions: not given
In short, it runs like this: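 Readout is the 665/615 nm TR-FRET ratio (Eu anti-His donor, streptavidin-Alexa647 acceptor), normalized to DMSO and saturating displacer, fit by Morrison-based five-parameter logistic for Kd^app. His-tagged sTNFR1 (1-211) prebound to 100 nM biotinylated peptide SEQ ID NO.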
Take `CCCC[C@@H]1NC(=O)[C@@H]2CC[C@@H](C2)NC(=O)[C@H]([C@@H](C)c2c[nH]c3c(OC)cccc23)NC(=O)CN(C)C(=O)[C@H](Cc2ccc(CN)cc2)NC(=O)[C@H](Cc2ccc(C(=O)O)cc2)NC(=O)[C@](C)(CO)NC(=O)[C@H](Cc2c[nH]c3c(Cl)cccc23)NC(=O)[C@H](Cc2ccncc2)NC(=O)[C@H](CC(N)=O)NC(=O)[C@H](CCC(=O)O)N(C)C(=O)[C@H](Cc2c[nH]c3ccccc23)NC(=O)[C@@H]2CNCCN2C(=O)[C@H](Cc2ccncc2)NC1=O` [SEQ ID NO. 269] (cyclo([4Pal][Trp(7-Cl)][αMeS][Phe(4-COOH)][Phe(4-CH2NH2)][Sar][Trp(βS-Me,7-OMe)][X1][Nle][4Pal][Pip(4-aza)]W[NMeE]N)): the negative-log Kd (pKd) (commonly the negative decadic logarithm of the Kd, by convention in mol/L) is 10.10.

On to `CCCC[C@@H]1NC(=O)CSC[C@@H](C(N)=O)NC(=O)[C@H]([C@@H](C)c2c[nH]c3c(OC)cccc23)NC(=O)CN(C)C(=O)[C@H](Cc2ccc(O)cc2)NC(=O)[C@H](Cc2ccc(C(=O)O)cc2)NC(=O)[C@](C)(CO)NC(=O)[C@H](Cc2c[nH]c3c(Cl)cccc23)NC(=O)[C@H](Cc2ccncc2)NC(=O)[C@H](CC(N)=O)NC(=O)[C@H](CCC(=O)O)N(C)C(=O)[C@H](Cc2c[nH]c3ccccc23)NC(=O)[C@@H]2C[C@H](N)CCN2C(=O)[C@H](Cc2ccncc2)NC1=O` [SEQ ID NO. 271] ({CH2CO}-[Nle][4Pal][X23]W[NMeE]N[4Pal][Trp(7-Cl)][αMeS][Phe(4-COOH)]Y[Sar][Trp(βS-Me,7-OMe)]C-NH2; thioether N-14), for which the pKd is 9.02.

The molecule `COc1cccc2c([C@H](C)[C@@H]3NC(=O)CN(C)C(=O)[C@H](Cc4ccc(O)cc4)NC(=O)[C@H](Cc4ccc(C(=O)O)cc4)NC(=O)[C@](C)(CO)NC(=O)[C@H](Cc4c[nH]c5c(Cl)cccc45)NC(=O)[C@H](Cc4ccncc4)NC(=O)[C@H](CC(N)=O)NC(=O)[C@H](CCC(=O)O)N(C)C(=O)[C@H](Cc4c[nH]c5ccccc45)NC(=O)[C@@H]4CNCCN4C(=O)[C@H](Cc4ccncc4)NC(=O)[C@H](CCC(C)(F)F)NC(=O)[C@@H]4CC[C@@H](C4)NC3=O)c[nH]c12` [SEQ ID NO. 275] (cyclo([4Pal][Trp(7-Cl)][αMeS][Phe(4-COOH)]Y[Sar][Trp(βS-Me,7-OMe)][X1][Nle(5,5-F2)][4Pal][Pip(4-aza)]W[NMeE]N)) showed a pKd of 9.44.

The assay is the same for the next values; noted with them: displacement of biotinylated peptide SEQ ID NO. 1 from sTNFR1; 20 point titration, 5-parameter fit based on Morrison equation (tight binding); read-out: TR-FRET Kd^app.
In the case of `CCCC[C@@H]1NC(=O)[C@@H]2CC[C@@H](C2)NC(=O)[C@H]([C@@H](C)c2c[nH]c3c(OC)cccc23)NC(=O)CN(C)C(=O)[C@H](Cc2ccc(C(=O)O)cc2)NC(=O)[C@H](Cc2ccc(C(N)=O)cc2)NC(=O)[C@](C)(CO)NC(=O)[C@H](Cc2c[nH]c3c(C#N)cccc23)NC(=O)[C@H](Cc2ccc(C(=O)O)cc2)NC(=O)[C@H](CC(N)=O)NC(=O)[C@H]2C[C@H](N)CN2C(=O)[C@H](Cc2cn(CC(=O)O)c3ccccc23)NC(=O)[C@@H]2CC[C@@H](O)CN2C(=O)[C@H](Cc2ccncc2)NC1=O` [SEQ ID NO. 104] (cyclo([4Pal][Pip(5R-OH)][Trp(1-CH2COOH)][dPro(4S-NH2)]N[Phe(4-COOH)][Trp(7-CN)][αMeS][Phe(4-CONH2)][Phe(4-COOH)][Sar][Trp(βS-Me,7-OMe)][X1][Nle])), the negative logarithm of the Kd (pKd) is 10.05.

As to `CCCC[C@@H]1NC(=O)CSC[C@@H](C(N)=O)NC(=O)[C@H]([C@@H](C)c2c[nH]c3c(OC)cccc23)NC(=O)CN(C)C(=O)[C@H](Cc2ccc(O)cc2)NC(=O)[C@H](Cc2ccc(C(=O)O)cc2)NC(=O)[C@](C)(CO)NC(=O)[C@H](Cc2c[nH]c3c(Cl)cccc23)NC(=O)[C@H](Cc2ccncc2)NC(=O)[C@H](CC(N)=O)NC(=O)[C@H](C)N(CC)C(=O)[C@H](Cc2c[nH]c3ccccc23)NC(=O)[C@@H]2COC(C)(C)CN2C(=O)[C@H](Cc2ccncc2)NC1=O` [SEQ ID NO. 183] ({CH2CO}-[Nle][4Pal][Morpholine(3S-CO,6,6-Me2)]W[NEtAla]N[4Pal][Trp(7-Cl)][αMeS][Phe(4-COOH)]Y[Sar][Trp(βS-Me,7-OMe)]C-NH2; thioether N-14), the pKd is 9.77.

For the molecule `CCCC[C@@H]1NC(=O)[C@@H]2CC[C@@H](C2)NC(=O)[C@H]([C@@H](C)c2c[nH]c3c(OC)cccc23)NC(=O)CN(C)C(=O)[C@H](Cc2ccc(C(N)=O)cc2)NC(=O)[C@H](Cc2ccc(C(N)=O)cc2)NC(=O)[C@](C)(CO)NC(=O)[C@H](Cc2c[nH]c3c(Cl)cccc23)NC(=O)[C@H](Cc2ccc(C(=O)O)cc2)NC(=O)[C@H](CC(N)=O)NC(=O)[C@H]2C[C@H](O)CN2C(=O)[C@H](Cc2c[nH]c3ccccc23)NC(=O)[C@@H]2CC[C@@H](O)CN2C(=O)[C@H](Cc2ccncc2)NC1=O` [SEQ ID NO. 196] (cyclo([4Pal][Pip(5R-OH)]W[dHyp]N[Phe(4-COOH)][Trp(7-Cl)][αMeS][Phe(4-CONH2)][Phe(4-CONH2)][Sar][Trp(βS-Me,7-OMe)][X1][Nle])), the pKd is 10.05.

In the case of `CCCC[C@@H]1NC(=O)[C@@H]2CC[C@@H](C2)NC(=O)[C@H]([C@@H](C)c2c[nH]c3c(OC)cccc23)NC(=O)CN(C)C(=O)[C@H](Cc2cccc(C(N)=O)c2)NC(=O)[C@H](Cc2ccc(C(=O)O)cc2)NC(=O)[C@](C)(CO)NC(=O)[C@H](Cc2c[nH]c3c(Cl)cccc23)NC(=O)[C@H](Cc2ccncc2)NC(=O)[C@H](CC(N)=O)NC(=O)[C@H](CCC(=O)O)N(C)C(=O)[C@H](Cc2c[nH]c3ccccc23)NC(=O)[C@@H]2CCCCN2C(=O)[C@H](Cc2ccncc2)NC1=O` [SEQ ID NO. 221] (cyclo([4Pal][Pip]W[NMeE]N[4Pal][Trp(7-Cl)][αMeS][Phe(4-COOH)][Phe(3-CONH2)][Sar][Trp(βS-Me,7-OMe)][X1][Nle])), the negative logarithm of the Kd (pKd) is 9.51.

Regarding `CCCC[C@@H]1NC(=O)[C@@H]2CC[C@@H](C2)NC(=O)[C@H]([C@@H](C)c2c[nH]c3c(OC)cccc23)NC(=O)CN(C)C(=O)[C@H](Cc2ccc(C(N)=O)cc2)NC(=O)[C@H](Cc2ccc(C(N)=O)cc2)NC(=O)[C@](C)(CO)NC(=O)[C@H](Cc2c[nH]c3c(C#N)cccc23)NC(=O)[C@H](Cc2ccc(C(=O)O)cc2)NC(=O)[C@H](CC(N)=O)NC(=O)[C@H]2C[C@H](O)CN2C(=O)[C@H](Cc2c[nH]c3ncccc23)NC(=O)[C@@H]2CC[C@@H](O)CN2C(=O)[C@H](Cc2ccncc2)NC1=O` [SEQ ID NO. 254] (cyclo([4Pal][Pip(5R-OH)][Trp(7-aza)][dHyp]N[Phe(4-COOH)][Trp(7-CN)][αMeS][Phe(4-CONH2)][Phe(4-CONH2)][Sar][Trp(βS-Me,7-OMe)][X1][Nle])), the pKd is 10.22.

The same assay, now with this note: displacement of biotinylated peptide SEQ ID NO. 1 from sTNFR1; weaker binders, 10 pts titration, 4-parameter logistic model; read-out: TR-FRET, IC50.
For `CCCC[C@@H]1NC(=O)CSC[C@@H](C(N)=O)NC(=O)[C@H]([C@@H](C)c2c[nH]c3c(OC)cccc23)NC(=O)CN(C)C(=O)[C@H](Cc2ccc(O)cc2)NC(=O)[C@H](Cc2ccc(C(=O)O)cc2)NC(=O)[C@](C)(CO)NC(=O)[C@H](Cc2c[nH]c3c(Cl)cccc23)NC(=O)[C@H](Cc2ccncc2)NC(=O)[C@H](CC(N)=O)NC(=O)[C@H](C)N(CC)C(=O)[C@H](Cc2c[nH]c3ccccc23)NC(=O)[C@@H]2COC(C)(C)CN2C(=O)[C@H](Cc2ccncc2)NC1=O` [SEQ ID NO. 183] ({CH2CO}-[Nle][4Pal][Morpholine(3S-CO,6,6-Me2)]W[NEtAla]N[4Pal][Trp(7-Cl)][αMeS][Phe(4-COOH)]Y[Sar][Trp(βS-Me,7-OMe)]C-NH2; thioether N-14), the pIC50 (commonly the IC50 on a negative log10 scale, so that one unit is a factor of ten) is 9.30.

On to `C[C@@H](c1c[nH]c2ccccc12)[C@@H]1NC(=O)CN(C)C(=O)[C@H](Cc2ccc(CN)cc2)NC(=O)[C@H](Cc2ccc(C(=O)O)cc2)NC(=O)[C@](C)(CO)NC(=O)[C@H](Cc2ccc3ccccc3c2)NC(=O)[C@H](Cc2ccc(CN)cc2)NC(=O)[C@H](CC(N)=O)NC(=O)[C@H]2CCCN2C(=O)[C@H]([C@@H](C)c2c[nH]c3ccccc23)NC(=O)[C@H](CO)NC(=O)[C@H](Cc2ccc(CN)cc2)NC(=O)[C@H](CCCNC(N)=O)NC(=O)CSC[C@@H](C(N)=O)NC1=O` [SEQ ID NO. 206] ({CH2CO}-[Cit][Phe(4-CH2NH2)]S[Trp(βS-Me)][dP]N[Phe(4-CH2NH2)][2Nal][αMeS][Phe(4-COOH)][Phe(4-CH2NH2)][Sar][Trp(βS-Me)]C-NH2; thioether N-14), for which the negative-log IC50 (pIC50) is 7.59.

These data come from patent US20240287138A1, “CYCLIC PEPTIDES FOR INHIBITING TNF RECEPTOR 1 ACTIVITY” (Merck Sharp & Dohme LLC, priority 2023, published 2024).
